Experimental data reported in publication PMC9120478 (Nature Communications, 2022).
Positions count from the first letter of the chain named. Where “and” joins values, the source holds several entries; their conditions need not be identical. Identical values can stand only once. Like-named read-outs stand apart in the source and are kept apart here. One block for each molecule: values may come before it.

Columns and labels:
F666A mutant TRPV3 = molecular target: T1, F666A mutant TRPV3 (Mus musculus, UniProt Q8K424, F666A); assay: Fura-2 ratiometric Ca2+ uptake, inhibition of 2-APB-evoked response; assay type: cell-based; conditions: for F340/F380 change normalized to maximal value in the absence of osthole: F666A
T1 construct: expressed in transfected cells; host or cells: HEK 293 S GnTI- cells (baculovirus transduction)
T1 sequence (Q8K424 1-791 F666A): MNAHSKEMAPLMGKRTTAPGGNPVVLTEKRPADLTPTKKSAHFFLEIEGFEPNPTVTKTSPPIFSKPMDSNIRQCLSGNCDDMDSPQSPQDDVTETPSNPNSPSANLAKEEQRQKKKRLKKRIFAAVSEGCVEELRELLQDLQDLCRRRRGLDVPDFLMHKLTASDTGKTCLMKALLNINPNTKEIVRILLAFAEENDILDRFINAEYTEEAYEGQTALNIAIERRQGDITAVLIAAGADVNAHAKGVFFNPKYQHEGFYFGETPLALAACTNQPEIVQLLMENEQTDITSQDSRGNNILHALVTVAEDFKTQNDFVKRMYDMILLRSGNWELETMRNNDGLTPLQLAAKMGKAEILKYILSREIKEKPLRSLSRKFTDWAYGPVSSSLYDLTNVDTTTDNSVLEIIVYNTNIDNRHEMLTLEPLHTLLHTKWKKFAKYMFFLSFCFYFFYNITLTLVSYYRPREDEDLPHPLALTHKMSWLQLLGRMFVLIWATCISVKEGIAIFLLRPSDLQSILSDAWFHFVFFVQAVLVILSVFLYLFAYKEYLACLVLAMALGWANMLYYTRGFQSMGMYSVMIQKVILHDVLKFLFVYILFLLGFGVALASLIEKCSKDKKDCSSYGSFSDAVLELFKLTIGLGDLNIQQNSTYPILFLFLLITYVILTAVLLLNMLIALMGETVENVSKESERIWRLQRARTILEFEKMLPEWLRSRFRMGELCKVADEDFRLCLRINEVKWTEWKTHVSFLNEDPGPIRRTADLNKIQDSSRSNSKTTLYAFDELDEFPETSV
Description: GFP-free C-terminally strep-tagged wild-type TRPV3, TRPV3-Y564A, TRPV3-Y594A, TRPV3-F633A, TRPV3-I663W, and TRPV3-F666A were expressed in HEK 293 S GnTI^− cells as previously described[41],[42],[53]. In short, 48 h after transduction, 1-ml aliquots of cell suspension were collected by centrifugation at 550 g for 5 min using an Eppendorf 5424 centrifuge. The cells were resuspended in the pre-warmed modified HEPES-buffered saline (HBS) containing 118 mM NaCl, 4.8 mM KCl, 1 mM MgCl2, 5 mM D-glucose, and 10 mM HEPES pH 7.4 and 5 μg/ml Fura-2 AM (Thermo Fisher Scientific) and incubated for 45 min at 37 °C. The Fura-2-loaded cells were then centrifuged for 5 min at 550 g, resuspended in the pre-warmed, modified HBS and incubated again for 30 min at 37 °C in the dark. The cells were subsequently pelleted and washed twice in the modified HBS. The washed cell pellets were kept on ice in the dark before taking an aliquot for fluorescence measurements. […] We used the lower CaCl2 concentration than before[42],[28] (2.5 mM) to minimize non-specific effects, which often appeared as a drift in the Fura-2 signal at high Ca^2+ concentration, presumably due to cell death as a result of calcium overload. Fluorescence measurements were conducted using a QuantaMaster 40 spectrofluorometer (Photon Technology International) at room temperature in a quartz cuvette under constant stirring. After 60 s since the beginning, the recording was paused and 2-APB was added. After the addition of 2-APB, the recording was continued for the additional 140 s. Changes in intracellular Ca^2+ were measured by taking the ratio of fluorescence emitted at 510 nm at the excitation wavelength of 340 nm and 380 nm. […] The data were processed using Origin 9.0 (OriginLab) software.

wild-type mouse TRPV3 = molecular target: T2, wild-type mouse TRPV3 (Mus musculus, UniProt Q8K424); conditions: cited from earlier work; for F340/F380 change normalized to maximal value in the absence of osthole: WT, published before
T2 construct: expressed in transfected cells; host or cells: HEK 293 S GnTI- cells (baculovirus transduction)
T2 sequence (Q8K424 1-791): T1 sequence (Q8K424 1-791 F666A) with A666F

[1] = molecular target: the molecule itself; assay: cryo-EM structure; TRPV3 reconstituted in cNW30 nanodiscs with soybean lipids; 150 mM NaCl, 20 mM Tris pH 8.0, 1 mM βME, 100 μM dyclonine plus 100 μM more before freezing; C4 symmetry, 3.16 Å
[2] = osthole Conc 1, single experiments

- F340/F380 change normalized to maximal value in the absence of osthole (F666A mutant TRPV3; [2]): 1.064 and 1.053 and 0.962
- F340/F380 change normalized to maximal value in the absence of osthole (F666A mutant TRPV3; osthole Conc 3, single experiments): 0.8581 and 0.9473 and 0.9415
- F340/F380 change normalized to maximal value in the absence of osthole (F666A mutant TRPV3; osthole Conc 10, single experiments): 0.7679 and 0.9394 and 0.7809
- F340/F380 change normalized to maximal value in the absence of osthole (F666A mutant TRPV3; osthole Conc 30, single experiments): 0.5836 and 0.4944 and 0.6286
- F340/F380 change normalized to maximal value in the absence of osthole (F666A mutant TRPV3; osthole Conc 100, single experiments): 0.1362 and 0.1904
- IC50 (F666A mutant TRPV3; HEK 293 GnTI- cells, 200 µM 2-APB after pre-incubation with inhibitor, n = 3): 33.1 ± 3.8 µM
- nHill of inhibition curve, F666A (F666A mutant TRPV3; logistic fit, n = 3): 1.37 ± 0.19
Molecule: COc1ccc2ccc(=O)oc2c1CC=C(C)C [osthole]
- F340/F380 change normalized to maximal value in the absence of osthole (wild-type mouse TRPV3; [2]): 0.9502 and 0.9764 and 1.106
- F340/F380 change normalized to maximal value in the absence of osthole (wild-type mouse TRPV3; osthole Conc 2.5, single experiments): 0.949 and 1.067
- F340/F380 change normalized to maximal value in the absence of osthole (wild-type mouse TRPV3; osthole Conc 5, single experiments): 0.9795 and 0.8169 and 0.895
- F340/F380 change normalized to maximal value in the absence of osthole (wild-type mouse TRPV3; osthole Conc 8, single experiments): 0.9193 and 0.8591 and 0.9872
- F340/F380 change normalized to maximal value in the absence of osthole (wild-type mouse TRPV3; osthole Conc 12.5, single experiments): 0.6517 and 0.6914 and 0.735
- F340/F380 change normalized to maximal value in the absence of osthole (wild-type mouse TRPV3; osthole Conc 18, single experiments): 0.5621 and 0.5685 and 0.5403
- F340/F380 change normalized to maximal value in the absence of osthole (wild-type mouse TRPV3; osthole Conc 25, single experiments): 0.4148 and 0.5672 and 0.4994
- F340/F380 change normalized to maximal value in the absence of osthole (wild-type mouse TRPV3; osthole Conc 50, single experiments): 0.161 and 0.164 and 0.15 and 0.2574
- nHill of osthole inhibition curve, wild-type TRPV3 (wild-type mouse TRPV3; n = 4, published before): 1.84 ± 0.14
- IC50 (wild-type mouse TRPV3; n = 4, published before, read-out: IC50, inhibition of wild-type TRPV3 by osthole): 20.5 ± 0.5 µM

B1: Mouse TRPV3 (vanilloid-subfamily member 3 TRP channel) (natural protein)
chain: AHSKEMAPLMGKRTTAPGGNPVVLTEKRPADLTPTKKSAHFFLEIEGFEPNPTVTKTSPPIFSKPMDSNIRQCLSGNCDDMDSPQSPQDDVTETPSNPNSPSANLAKEEQRQKKKRLKKRIFAAVSEGCVEELRELLQDLQDLCRRRRGLDVPDFLMHKLTASDTGKTCLMKALLNINPNTKEIVRILLAFAEENDILDRFINAEYTEEAYEGQTALNIAIERRQGDITAVLIAAGADVNAHAKGVFFNPKYQHEGFYFGETPLALAACTNQPEIVQLLMENEQTDITSQDSRGNNILHALVTVAEDFKTQNDFVKRMYDMILLRSGNWELETMRNNDGLTPLQLAAKMGKAEILKYILSREIKEKPLRSLSRKFTDWAYGPVSSSLYDLTNVDTTTDNSVLEIIVYNTNIDNRHEMLTLEPLHTLLHTKWKKFAKYMFFLSFCFYFFYNITLTLVSYYRPREDEDLPHPLALTHKMSWLQLLGRMFVLIWATCISVKEGIAIFLLRPSDLQSILSDAWFHFVFFVQAVLVILSVFLYLFAYKEYLACLVLAMALGWANMLYYTRGFQSMGMYSVMIQKVILHDVLKFLFVYILFLLGFGVALASLIEKCSKDKKDCSSYGSFSDAVLELFKLTIGLGDLNIQQNSTYPILFLFLLITYVILTFVLLLNMLIALMGETVENVSKESERIWRLQRARTILEFEKMLPEWLRSRFRMGELCKVADEDFRLCLRINEVKWTEWKTHVSFLNEDPGPIRRTADLNKIQDSSRSNSKTTLYAFDELDEFPETSV
notes: TRPV3, mouse; model built for residues 118-756, leaving out 462-470 and 611-621
- stoichiometry N [1]: 4
